Measurements: US20230287021A1, “COMPOUNDS, COMPOSITIONS AND METHODS FOR STABILIZING TRANSTHYRETIN AND INHIBITING TRANSTHYRETIN MISFOLDING” (Protego Biopharma, Inc., priority 2020, published 2023)
Structures can show the parent of a compound that is named as a salt.

Key:
[1] = In vitro rat liver S9 stability assay, formation of tafamidis; format: in vitro ADME; settings: rat liver S9, 37° C., 1 µM test compound
Procedure: The test compound was added to liver S9 and incubated at 37° C. in a water bath at a concentration of 1 µM. At each time point (0, 5, 10, 20, 30 and 60 min), stop solution (tolbutamide plus labetalol) was added to precipitate protein and mixed thoroughly. After centrifugation, an aliquot of supernatant was analyzed by LC-MS/MS. The percentage of formation of active agent was calculated at each time point.

[2] = In vivo rat PK: tafamidis in plasma, CSF and brain; parameters: species or system Male Sprague-Dawley (SD) rats; settings: for Tafamidis CSF/Plasma Ratio over 24 hrs (po): po administration of test compound
Excerpt: For a compound provided herein to be an effective TTR stabilizer drug to halt and/or prevent the ocular and cerebral TTR amyloid deposition TTR amyloidosis, it has to be able to penetrate into the brain and CSF (surrogate for eye penetration) and deliver a sufficient amount of TTR stabilizer to stop TTR dissociation. A pharmacokinetic study in rat was used to evaluate the compounds. Male Sprague-Dawley (SD) rats (200-220 g weight) were acclimated for at least 2 to 3 days before being placed on study. All animals had access to certified rodent diet and water at libitum. Appropriate amount of the test compound was accurately weighed and mixed with appropriate volume of vehicle (such as DMSO/sterile water for iv dosing or 0.5% methylcellulose homogenous suspension or solution for oral administration or as a solution in a mixture NMP/PEG400/solutol/water) to administer a dose of 2, 5 or 10 mg/kg. For IV dosing the test compound was administered via tail vein or indwelling cannula. For oral dosing, the test compound was administered by oral gavage. Blood and CSF samples were collected at selected timepoints. Blood collection was performed from saphenous vein or tail vein of each animal into polypropylene tubes at each timepoint. All blood samples were transferred into EDTA-K2 tubes and centrifuged for 15 minutes at 4° C. for plasma collection. Plasma samples were kept at -80° C. until LC/MSMS analysis. CSF was collected from cisterna magna at each timepoint and quick frozen over dry ice and kept at -80° C. until LC/MSMS analysis. Brains were harvested immediately after the terminal bleeding (~ 24 hrs post dosing). The blood of the brain was perfused with normal saline. The brain was quickly picked and placed into centrifuge tube. The weight of brain samples was recorded. 4-Fold homogenization solution (MeOH/15 mM PBS (1:2)) was added into the tube according to the weighed samples. The brain was homogenized using a Polytron (3 strokes or more until homogenous, each 30 seconds) on wet ice. The samples were quick frozen over dry ice and kept at -80° C. until LC/MSMS analysis. Using a LC-MSMS method for the quantitative determination of test compound in biological matrixes, amount of test compound and active agent were measured in plasma and CSF at selected timepoints post-dosing and in brain at 24 hrs post dosing. Plasma concentration versus time data was analyzed by non-compartmental approaches using the Phoenix WinNonlin 6.3 software program. As reference, an oral dose of 2 mg/kg of tafamidis gave a CSF to plasma ratio over 24 hrs around 0.01 and a brain to plasma ratio at 24 hrs around 0.02.

[3] = In vitro rat plasma stability assay, formation of tafamidis; format: in vitro ADME; settings: 37° C., 2 µM test compound
Procedure: A stability assay in plasma (rat or human) was used to evaluate the ability of a compound provided herein to convert to an active TTR stabilizer. The test compound was added to plasma and incubated at 37° C. in a water bath at a concentration of 2 µM. At each time point (0, 10, 30, 60 and 120 min or 0, 60, 120, 180 and 240 min), stop solution (tolbutamide plus labetalol) was added to precipitate protein and mixed thoroughly. After centrifugation, an aliquot of supernatant was analyzed by LC-MS/MS. The percentage of formation of active agent was calculated at each time point.

Row | SMILES | Formation of tafamidis at 60 min [1] | Tafamidis CSF/Plasma Ratio over 24 hrs (po) [2] | Formation of tafamidis at 120 min [3] | Tafamidis CSF/Plasma Ratio (iv) ([2]; iv administration of test compound)
1 | CN1CCCC1COC(=O)c1ccc2nc(-c3cc(Cl)cc(Cl)c3)oc2c1 (centres unmarked) [Compound 61, (1-methylpyrrolidin-2-yl)methyl 2-(3,5-dichlorophenyl)benzo [d] oxazole-6-carboxylate] | C (C is ≥50 to <75%) | – | D (D is ≥75%) | –
2 | N[C@@H](Cc1cccc(OC(=O)c2ccc3nc(-c4cc(Cl)cc(Cl)c4)oc3c2)c1)C(=O)O [Compound 28, (S)-2-amino-3-(3-((2-(3,5-dichlorophenyl)benzo[d]oxazole-6-carbonyl)oxy)phenyl) propanoic acid hydrochloride] | – | – | A (A is <25%) | A (A is <0.015)
3 | O=C(OCCN1CCOCC1)c1ccc2nc(-c3cc(Cl)cc(Cl)c3)oc2c1 [Compound 80] | D (D is ≥75%) | – | B (B is ≥25 to <50%) | –
4 | Cn1ccnc1COC(=O)c1ccc2nc(-c3cc(Cl)cc(Cl)c3)oc2c1 [Compound 98] | D (D is ≥75%) | – | C (C is ≥50 to <75%) | –
5 | O=C(OC1CCNC1)c1ccc2nc(-c3cc(Cl)cc(Cl)c3)oc2c1 (centres unmarked) [Compound 17, pyrrolidin-3-yl 2-(3,5-dichlorophenyl)benzo[d]oxazole-6-carboxylate hydrochloride] | A (A is <25%) | – | A (A is <25%) | –
6 | CC(C)(C)OC(=O)N1CC2CCC1CC2OC(=O)c1ccc2nc(-c3cc(Cl)cc(Cl)c3)oc2c1 (centres unmarked) [Compound 26, 2-(tert-butoxycarbonyl)-2-azabicyclo[2.2.2]octan-5-yl 2-(3,5-dichlorophenyl) benzo [d] oxazole-6-carboxylate] | A (A is <25%) | – | A (A is <25%) | –
7 | O=C(OCCn1ccnc1)c1ccc2nc(-c3cc(Cl)cc(Cl)c3)oc2c1 [Compound 99] | D (D is ≥75%) | – | B (B is ≥25 to <50%) | –
8 | CC(C)(C)N1CCC(OC(=O)c2ccc3nc(-c4cc(Cl)cc(Cl)c4)oc3c2)C1 (centres unmarked) [Compound 92] | A (A is <25%) | – | B (B is ≥25 to <50%) | –
9 | O=C(OCCN1CCCCC1)c1ccc2nc(-c3cc(Cl)cc(Cl)c3)oc2c1 [Compound 34, 2-(piperidin-1-yl)ethyl 2-(3,5-dichlorophenyl)benzo[d] oxazole-6-carboxylate] | C (C is ≥50 to <75%) | – | A (A is <25%) | –
10 | O=C(OCc1ncc[nH]1)c1ccc2nc(-c3cc(Cl)cc(Cl)c3)oc2c1 [Compound 89] | D (D is ≥75%) | – | C (C is ≥50 to <75%) | –
11 | CN1CC2CCC1CC2OC(=O)c1ccc2nc(-c3cc(Cl)cc(Cl)c3)oc2c1 (centres unmarked) [Compound 32, 2-methyl-2-azabicyclo[2.2.2]octan-5-yl 2-(3,5-dichlorophenyl) benzo [d]oxazole-6-carboxylate] | A (A is <25%) | – | A (A is <25%) | –
12 | CCN(C)CCOC(=O)c1ccc2nc(-c3cc(Cl)cc(Cl)c3)oc2c1 [Compound 43] | – | – | C (C is ≥50 to <75%) | –
13 | C[C@H](COC(=O)c1ccc2nc(-c3cc(Cl)cc(Cl)c3)oc2c1)N(C)C [Compound 45, (R)-2-(dimethylamino)propyl 2-(3,5-dichlorophenyl)benzo[d] oxazole-6-carboxylate] | – | – | C (C is ≥50 to <75%) | –
14 | O=C(OC1CC2CCC1CN2)c1ccc2nc(-c3cc(Cl)cc(Cl)c3)oc2c1 (centres unmarked) [Compound 27, 2-azabicyclo[2.2.2]octan-5-yl 2-(3,5-dichlorophenyl)benzo [d]oxazole-6-carboxylate hydrochloride] | A (A is <25%) | – | A (A is <25%) | –
15 | O=C(OCC1CCCO1)c1ccc2nc(-c3cc(Cl)cc(Cl)c3)oc2c1 (centres unmarked) [Compound 86] | D (D is ≥75%) | – | D (D is ≥75%) | –
16 | O=C(OCCCN1CCNCC1)c1ccc2nc(-c3cc(Cl)cc(Cl)c3)oc2c1 [Compound 83] | – | – | D (D is ≥75%) | –
17 | CN(CCO)C(=O)c1ccc2nc(-c3cc(Cl)cc(Cl)c3)oc2c1 [Compound 65, 2-(3,5-dichlorophenyl)-N-(2-hydroxyethyl)-N-methylbenzo [d] oxazole-6-carboxamide] | – | – | A (A is <25%) | –
18 | CC(C)(C)OC(=O)NCCOC(=O)c1ccc2nc(-c3cc(Cl)cc(Cl)c3)oc2c1 [Compound 10, 2-((tert-butoxycarbonyl)amino)ethyl 2-(3,5-dichlorophenyl) benzo [d]oxazole-6-carboxylate] | – | – | A (A is <25%) | –
19 | O=C(OCCC[n+]1ccccc1)c1ccc2nc(-c3cc(Cl)cc(Cl)c3)oc2c1.[Br-] [Compound 3, 1-(3-(2-(3,5-Dichlorophenyl)benzo[d]oxazole-6-carbonyloxy)propyl)-pyridinium bromide] | – | – | A (A is <25%) | –

The next lines start with the values.

Row | Formation of tafamidis at 60 min [1] | Tafamidis CSF/Plasma Ratio over 24 hrs (po) [2] | Formation of tafamidis at 120 min [3] | Tafamidis CSF/Plasma Ratio (iv) ([2]; iv administration of test compound) | SMILES
20 | A (A is <25%) | A (A is < 0.015) | – | – | CN(C)[C@H]1CCC[C@@H]1OC(=O)c1ccc2nc(-c3cc(Cl)cc(Cl)c3)oc2c1 [Compound 116]
21 | B (B is ≥25 to <50%) | – | A (A is <25%) | – | CC1CCC(OC(=O)c2ccc3nc(-c4cc(Cl)cc(Cl)c4)oc3c2)C1 (centres unmarked) [Compound 185]
22 | C (C is ≥50 to <75%) | – | C (C is ≥50 to <75%) | – | CC(CCn1ccnc1)OC(=O)c1ccc2nc(-c3cc(Cl)cc(Cl)c3)oc2c1 (centres unmarked) [Compound 178, 4-(1H-imidazol-1-yl)butan-2-yl 2-(3,5-dichlorophenyl)-benzo [d] oxazole-6-carboxylate]
23 | A (A is <25%) | – | B (B is ≥25 to <50%) | – | O=C(OC1CCc2nccn2C1)c1ccc2nc(-c3cc(Cl)cc(Cl)c3)oc2c1 (centres unmarked) [Compound 157, 5,6,7,8-tetrahydroimidazo[1,2-a]pyridin-6-yl 2-(3,5-dichlorophenyl)benzo[d]oxazole-6-carboxylate hydrochloride]
24 | D (D is ≥75%) | – | D (D is ≥75%) | – | Cn1ccnc1CCOC(=O)c1ccc2nc(-c3cc(Cl)cc(Cl)c3)oc2c1 [Compound 177]
25 | D (D is ≥75%) | – | D (D is ≥75%) | – | CN1CC(OC(=O)c2ccc3nc(-c4cc(Cl)cc(Cl)c4)oc3c2)C(F)(F)C1 (centres unmarked) [Compound 175]
26 | D (D is ≥75%) | – | C (C is ≥50 to <75%) | – | N#CCN1CCC(OC(=O)c2ccc3nc(-c4cc(Cl)cc(Cl)c4)oc3c2)C1 (centres unmarked) [Compound 176]
27 | D (D is ≥75%) | – | B (B is ≥25 to <50%) | – | O=C(OCc1ccccn1)c1ccc2nc(-c3cc(Cl)cc(Cl)c3)oc2c1 [Compound 103]
28 | C (C is ≥50 to <75%) | – | B (B is ≥25 to <50%) | – | N#CCCN1CCC(OC(=O)c2ccc3nc(-c4cc(Cl)cc(Cl)c4)oc3c2)C1 (centres unmarked) [Compound 179]
29 | A (A is <25%) | – | B (B is ≥25 to <50%) | – | O=C(OC1CCN2CCCC12)c1ccc2nc(-c3cc(Cl)cc(Cl)c3)oc2c1 (centres unmarked) [Compound 180, Hexahydro-1H-pyrrolizin-1-yl 2-(3,5-dichlorophenyl)benzo[d]oxazole-6-carboxylate]
30 | B (B is ≥25 to <50%) | A (A is < 0.015) | – | – | CC(CN1CCOCC1)OC(=O)c1ccc2nc(-c3cc(Cl)cc(Cl)c3)oc2c1 (centres unmarked) [Compound 143]
31 | A (A is <25%) | – | A (A is <25%) | – | CCNC(=O)c1ccc2nc(-c3cc(Cl)cc(Cl)c3)oc2c1 [Compound 183]
